Laboratory results as given in patent US5637583A, “Aminocyclohexylesters and uses thereof” (University of British Columbia, priority 1994, dated 1997).

Experiments:
[1] = test system: central nervous system of the rat; experiment: Opioid-like effects during in vivo tests
Source text: This provides evidence that some of the compounds may have analgesic activity through activation of opioid receptors. Examination of members of this series of compounds by analgesic assays and binding studies show the presence of opioid binding and activity.

cardiac sodium channel [2] = molecular target: T1, cardiac sodium channel (Rattus norvegicus, UniProt P15389); experiment: Electrical stimulation of left ventricle in rats (iT, VFT; cardiac sodium channel blockade); assay type: in vivo; details: infusion rate for 25% increase from control; anesthetized rats
T1 sequence (P15389 whole entry, the tested form may be a part): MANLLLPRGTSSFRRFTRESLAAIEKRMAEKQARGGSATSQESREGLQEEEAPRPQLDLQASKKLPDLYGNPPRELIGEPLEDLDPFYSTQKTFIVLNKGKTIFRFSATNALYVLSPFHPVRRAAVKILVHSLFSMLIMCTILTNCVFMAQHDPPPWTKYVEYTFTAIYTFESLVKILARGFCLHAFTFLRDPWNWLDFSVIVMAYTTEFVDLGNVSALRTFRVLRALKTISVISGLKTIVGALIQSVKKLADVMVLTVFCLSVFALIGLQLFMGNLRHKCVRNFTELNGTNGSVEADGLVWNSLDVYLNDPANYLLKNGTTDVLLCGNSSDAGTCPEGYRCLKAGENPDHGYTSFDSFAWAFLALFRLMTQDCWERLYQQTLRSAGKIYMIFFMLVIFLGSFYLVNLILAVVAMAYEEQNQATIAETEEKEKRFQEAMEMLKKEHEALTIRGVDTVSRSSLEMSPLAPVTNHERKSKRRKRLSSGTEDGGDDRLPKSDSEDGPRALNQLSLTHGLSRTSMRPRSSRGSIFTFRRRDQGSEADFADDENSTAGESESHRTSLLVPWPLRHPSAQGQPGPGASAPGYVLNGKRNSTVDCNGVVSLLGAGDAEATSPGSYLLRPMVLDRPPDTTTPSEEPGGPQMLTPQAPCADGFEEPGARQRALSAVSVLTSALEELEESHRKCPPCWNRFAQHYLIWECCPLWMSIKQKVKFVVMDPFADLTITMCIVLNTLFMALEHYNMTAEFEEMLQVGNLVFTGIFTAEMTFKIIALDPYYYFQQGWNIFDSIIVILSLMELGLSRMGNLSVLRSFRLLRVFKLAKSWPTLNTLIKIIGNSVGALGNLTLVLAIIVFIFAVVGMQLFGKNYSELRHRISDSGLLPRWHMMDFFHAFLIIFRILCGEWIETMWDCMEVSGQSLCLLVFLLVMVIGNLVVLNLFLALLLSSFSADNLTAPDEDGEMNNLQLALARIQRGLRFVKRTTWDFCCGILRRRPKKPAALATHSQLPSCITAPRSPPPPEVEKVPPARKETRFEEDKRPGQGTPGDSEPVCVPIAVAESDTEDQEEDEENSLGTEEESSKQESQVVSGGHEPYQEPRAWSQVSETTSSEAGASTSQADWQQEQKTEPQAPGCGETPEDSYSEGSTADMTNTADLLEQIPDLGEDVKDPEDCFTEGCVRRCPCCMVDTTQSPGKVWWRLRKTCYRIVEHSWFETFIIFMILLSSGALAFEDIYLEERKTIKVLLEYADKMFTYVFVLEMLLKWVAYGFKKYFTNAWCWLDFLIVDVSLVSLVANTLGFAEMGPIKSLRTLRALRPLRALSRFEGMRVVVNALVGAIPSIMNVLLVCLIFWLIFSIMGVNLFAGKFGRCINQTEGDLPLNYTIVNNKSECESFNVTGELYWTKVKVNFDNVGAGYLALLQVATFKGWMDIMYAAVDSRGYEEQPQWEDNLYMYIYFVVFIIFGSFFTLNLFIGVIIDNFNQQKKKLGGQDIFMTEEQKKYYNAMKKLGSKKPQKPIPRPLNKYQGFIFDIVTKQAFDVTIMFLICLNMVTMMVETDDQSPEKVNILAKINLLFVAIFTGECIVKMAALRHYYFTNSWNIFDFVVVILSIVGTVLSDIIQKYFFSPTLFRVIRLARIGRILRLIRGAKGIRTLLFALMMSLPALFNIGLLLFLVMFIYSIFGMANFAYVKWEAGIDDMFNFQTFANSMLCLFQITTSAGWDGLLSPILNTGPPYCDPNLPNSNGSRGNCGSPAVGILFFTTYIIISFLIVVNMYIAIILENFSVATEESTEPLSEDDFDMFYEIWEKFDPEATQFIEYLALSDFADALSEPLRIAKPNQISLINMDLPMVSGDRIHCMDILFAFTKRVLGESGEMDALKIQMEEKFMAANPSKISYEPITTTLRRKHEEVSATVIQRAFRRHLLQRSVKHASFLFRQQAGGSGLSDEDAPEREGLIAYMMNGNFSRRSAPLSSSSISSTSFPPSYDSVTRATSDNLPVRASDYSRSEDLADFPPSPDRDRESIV
Method: Rats were prepared according to the preceding procedure. Two silver stimulating electrodes were inserted through the chest wall and implanted in the left ventricle. Square wave stimulation was used to determine threshold current for capture, ventricular fibrillation threshold current, and effective refractory period (Howard, P. G. and Walker, M. J. A., Proc. West. Pharmacol. Soc. 33:123-127 (1990)). Table 5 contains ED25 values for these indices of cardiac sodium channel blockade, where the ED25 is the infusion rate in micromoles/kg/minute of compound required to elicit a 25% increase from control. The increases in refractoriness indicate ancillary blockade of potassium channels. The threshold current for capture is represented by "iT". The fibrillation threshold current is represented by "VFT". The effective refracting period is represented by "ERP".

potassium channels = experiment: Electrical stimulation of left ventricle in rats (ERP; ancillary blockade of potassium channels); assay type: in vivo, rat; details: infusion rate for 25% increase from control; anesthetized rats
Source text: Two silver stimulating electrodes were inserted through the chest wall and implanted in the left ventricle. Square wave stimulation was used to determine threshold current for capture, ventricular fibrillation threshold current, and effective refractory period (Howard, P. G. and Walker, M. J. A., Proc. West. Pharmacol. Soc. 33:123-127 (1990)). […] The threshold current for capture is represented by "iT". The fibrillation threshold current is represented by "VFT". The effective refracting period is represented by "ERP".

cardiac sodium channel [3] = molecular target: T1, cardiac sodium channel; experiment: ECG parameters in anesthetized rats (RSh, PR, QRS; cardiac sodium channel blockade); assay type: in vivo; details: i.v. bolus, RSh
Method: Rats weighing 200-250 gms were used in this example. Animals were anesthetized with 60 mg/kg pentobarbitone i.p. The carotid artery and jugular vein were cannulated for measurement of blood pressure and drug injection, respectively. ECG was recorded by insertion of electrodes placed along the anatomical axis of the heart. All compounds were given as bolus injections.
Various ECG parameters were measured. The most sensitive of these for measuring sodium channel blockade is RSh (J. Pharmacology Methods 27:51-58 (1992)). Table 4 describes the results of the tests as ED25 (micromoles/kg) which are the doses required to produce a 25% increase in the parameter measured (ne=not estimated). The increases in P-R interval, QRS interval and RSh indicate cardiac sodium channel blockade while the increase in Q-T interval indicates ancillary cardiac potassium channel blockade which is the property of a type 1 a antiarrhythmic.

[4] = test system: cardiac potassium channel; experiment: ECG parameters in anesthetized rats (QT; ancillary cardiac potassium channel blockade); assay type: in vivo, rat; details: i.v. bolus, Q-T interval
Method: Various ECG parameters were measured. […] The increases in P-R interval, QRS interval and RSh indicate cardiac sodium channel blockade while the increase in Q-T interval indicates ancillary cardiac potassium channel blockade which is the property of a type 1 a antiarrhythmic.

phrenic nerve diaphragm = experiment: Nerve conduction blockade in vitro, phrenic nerve diaphragm; details: Rattus norvegicus; phrenic nerve diaphragm, in vitro; read-out: concentration at which the twitch response from electrical stimulation is reduced to 50% of control value
Method: In order to establish the potency of the compounds to block nerve conduction, two in vitro assays were used. The first was the phrenic nerve diaphragm of the rat. […] Nerve blockade in these preparations is indicative of local anesthetic activity. Compounds were administered to the bath solution in increasing concentrations while the preparations were being stimulated with regular electrical impulses.

cardiac sodium channel [5] = molecular target: T1, cardiac sodium channel; experiment: Whole cell voltage clamp tests, single isolated adult rat cardiac cells; assay type: cell-based; details: whole cell voltage clamp, isolated adult rat cardiac cells; read-out: EC50 (concentration required to produce a 50% reduction in sodium current)
Method: In order to directly measure cardiac sodium channel blockade, standard whole cell voltage clamp tests were carried out using single isolated adult rat cardiac cells. Results in the form of EC50 values, which are micromolar concentrations required to produce a 50% reduction in sodium current, are presented in Table 6.

[6] = test system: conscious rats subject to coronary artery occlusion; experiment: Antiarrhythmic efficacy: incidence of cardiac arrhythmias in conscious rats subject to coronary artery occlusion; assay type: in vivo, rat; details: dose 5 micromoles/kg/min infusion; score 0-9 per Table 2; 30 min after occlusion
Method: Antiarrhythmic efficacy was assessed by investigating the effect of a compound on the incidence of cardiac arrhythmias in conscious rats subject to coronary artery occlusion. Rats weighing 200-300 gms were subjected to preparative surgery and assigned to groups in a random block design. In each case, the animal was anesthetized with halothane during surgical preparation. The left femoral artery was cannulated for measurement of mean arterial blood pressure and withdrawal of blood samples. The left femoral vein was also cannulated for injection of drugs. The thoracic cavity was opened and a polyethylene occluder loosely placed around the left anterior descending coronary artery. The thoracic cavity was then closed. ECG was recorded by insertion of electrodes placed along the anatomical axis of the heart. All cannulae and electrode leads were exteriorized in the mid scapular region. In random and double-blind manner, about 0.5 to 2 hours post-surgery, an infusion of vehicle, or the compound to be tested was given. After 15 minutes infusion, the occluder was pulled so as to produce coronary artery occlusion. ECG, arrhythmias, blood pressure, heart rate and mortality were monitored for 30 minutes after occlusion. Arrhythmias were recorded as ventricular tachycardia (VT) and ventricular fibrillation (VF) and scored according to Curtis, M. J. and Walker, M. J. A., Cardiovasc.
VPB=ventricular premature beats
VT=ventricular tachycardia
VF=ventricular fibrillation
Occlusion is associated with increases in R-wave height and "S-T" segment elevation; and an occluded zone (measured after death by cardiogreen dye perfusion) in the range of 25%-50% of total left-ventricular weight.

[7] = test system: hypogastric nerve vas deferens; experiment: Nerve conduction blockade in vitro, hypogastric nerve vas deferens; details: hypogastric nerve vas deferens, in vitro; read-out: concentration at which the twitch response from electrical stimulation is reduced to 50% of control value
Method: In order to establish the potency of the compounds to block nerve conduction, two in vitro assays were used. The first was the phrenic nerve diaphragm of the rat. The second was the hypogastric nerve vas deferens. Nerve blockade in these preparations is indicative of local anesthetic activity. Compounds were administered to the bath solution in increasing concentrations while the preparations were being stimulated with regular electrical impulses.

For Cl.O=C(Cc1csc2ccccc12)O[C@@H]1CCCC[C@H]1N1CCOCC1 (racemic) [Compound #6, (±)-trans-[2-(4-morpholinyl)cyclohexyl]benzo[b]thiophene-3-acetate monohydrochloride], the “opioid-like effects on the central nervous system” value [1] was “induced opioid-like effects on the central nervous system of the rat”, the “ED25 VFT (fibrillation threshold current)” value (cardiac sodium channel [2]) was 9 µmol/kg/min and the “ED25 iT (threshold current for capture)” value (cardiac sodium channel [2]) was 12 µmol/kg/min. The “ED25 ERP (effective refractory period)” value (potassium channels) was 7 µmol/kg/min, the “ED25 RSh (dose required to produce a 25% increase)” value (cardiac sodium channel [3]) was 100 µmol/kg and the “ED25 QT (dose required to produce a 25% increase)” value [4] was 79 µmol/kg. For the same molecule, the IC50 (phrenic nerve diaphragm) was 30 µM, the EC50 (cardiac sodium channel [5]) was 150 µM and the “AS (arrhythmia score)” value [6] was 1.8. For the same molecule, the IC50 [7] was 100 µM.
